Reference: US20240317721A1, “PYRAZOLYL DERIVATIVES AS INHIBITORS OF THE KRAS MUTANT PROTEIN” (NOVARTIS AG, priority 2021, published 2024)

Target: KRasG12C (M1-K169, biotinylated on the N-terminus) (Homo sapiens (Human), UniProt P01116, G12C)
Test: Covalent competition assay: scintillation proximity assay (SPA) quantifying covalent modification of KRASG12C
Format: binding
Details: competition with radiolabeled covalent probe (Compound B/Compound A), 2 hours incubation, 10 nM KRasG12C
Summary of the method: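 Test compounds compete with a radiolabeled covalent probe for modification of N-terminally biotinylated KRasG12C(M1-K169):GDP, final 10 nM protein, 25 nM radio-ligand, 475 nM unlabelled ligand, 2 h with agitation in 20 mM Tris-HCl pH 7.5, 150 mM NaCl, 0.1 mM MgCl2, 0.01% Tween-20.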

Structure (SMILES)	IC50 [nM]
C=CC(=O)N1CC2(CC(n3nc(N4CCN(C(COC)COC)C[C@]4(C)CC)c(-c4c(Cl)c(C)cc5[nH]ncc45)c3C)C2)C1 (single isomer, unassigned) [Example 187b]	5
C=CC(=O)N1CC2(CC(n3nc(N4CCN(Cc5cn(C)nn5)C[C@]4(C)CC)c(-c4c(Cl)c(C)cc5[nH]ncc45)c3C)C2)C1 (single isomer, unassigned) [Example 188a]	387
C=CC(=O)N1CC2(CC(n3nc(N4CCN(Cc5cn(C)nn5)C[C@]4(C)CC)c(-c4c(Cl)c(C)cc5[nH]ncc45)c3C)C2)C1 (single isomer, unassigned) [Example 188b]	6
C=CC(=O)N1CC2(CC(n3nc(N4CCN(C[C@H]5COCCO5)CC45CCC5)c(-c4c(Cl)c(C)cc5[nH]ncc45)c3C)C2)C1 (single isomer, unassigned) [Example 189a]	> 5000
C=CC(=O)N1CC2(CC(n3nc(N4CCN(C5(C)COC5)CC45CCC5)c(-c4c(Cl)c(C)cc5[nH]ncc45)c3C)C2)C1 (single isomer, unassigned) [Example 191a, 1-(6-(4-(5-Chloro-6-methyl-1H-indazol-4-yl)-5-methyl-3-(8-(3-methyloxetan-3-yl)-5,8-diazaspiro[3.5]nonan-5-yl)-1H-pyrazol-1-yl)-2-azaspiro[3.3]heptan-2-yl)prop-2-en-1-one]	> 5000
C=CC(=O)N1CC2(CC(n3nc(N4CCN(c5ccnnc5)C[C@]4(C)CC)c(-c4c(Cl)c(C)cc5[nH]ncc45)c3C)C2)C1 (single isomer, unassigned) [Example 192a]	> 5000
C=CC(=O)N1CC2(CC(n3nc(N4CCN(c5ccnnc5)C[C@]4(C)CC)c(-c4c(Cl)c(C)cc5[nH]ncc45)c3C)C2)C1 (single isomer, unassigned) [Example 192b]	8
C=CC(=O)N1CC2(CC(n3nc(N4CCN(c5cnn(C)c5)CC4(C)C)c(-c4c(Cl)c(C)cc5[nH]ncc45)c3C)C2)C1 (single isomer, unassigned) [Example 193b, 1-(6-(4-(5-Chloro-6-methyl-1H-indazol-4-yl)-3-(2,2-dimethyl-4-(1-methyl-1H-pyrazol-4-yl)piperazin-1-yl)-5-methyl-1H-pyrazol-1-yl)-2-azaspiro[3.3]heptan-2-yl)prop-2-en-1-one]	28
C=CC(=O)N1CC2(CC(n3nc(N4CCN(C(C)=O)CC4)c(-c4c(Cl)ccc5[nH]ncc45)c3C)C2)C1C (single isomer, unassigned) [Example 196b, 1-(6-(3-(4-acetylpiperazin-1-yl)-4-(5-chloro-1H-indazol-4-yl)-5-methyl-1H-pyrazol-1-yl)-1-methyl-2-azaspiro[3.3]heptan-2-yl)prop-2-en-1-one]	9000
C=CC(=O)N1CC2(CC(n3nc(N4CCN(C(C)=O)CC4)c(-c4c(Cl)ccc5[nH]ncc45)c3C)C2)C1C (single isomer, unassigned) [Example 197a, 1-(6-(3-(4-acetylpiperazin-1-yl)-4-(5-chloro-1H-indazol-4-yl)-5-methyl-1H-pyrazol-1-yl)-1-methyl-2-azaspiro[3.3]heptan-2-yl)prop-2-en-1-one]	> 50000
C=CC(=O)N1CC2(CC(n3nc(N4CCN(C(C)=O)CC4)c(-c4c(Cl)ccc5[nH]ncc45)c3C)C2)C1C (single isomer, unassigned) [Example 197b, 1-(6-(3-(4-acetylpiperazin-1-yl)-4-(5-chloro-1H-indazol-4-yl)-5-methyl-1H-pyrazol-1-yl)-1-methyl-2-azaspiro[3.3]heptan-2-yl)prop-2-en-1-one]	49700
C=CC(=O)N1CC2(CC(n3nc(N4CCN(C(C)=O)CC4)c(-c4c(Cl)ccc5[nH]ncc45)c3C)C2)C1C (single isomer, unassigned) [Example 198a, 1-(6-(3-(4-acetylpiperazin-1-yl)-4-(5-chloro-1H-indazol-4-yl)-5-methyl-1H-pyrazol-1-yl)-1-methyl-2-azaspiro[3.3]heptan-2-yl)prop-2-en-1-one]	> 50000
C=CC(=O)N1CC2(CC(n3nc(N4CCN(C[C@@H]5COCCO5)C[C@]4(C)CC)c(-c4c(Cl)c(C)cc5[nH]ncc45)c3C)C2)C1C (single isomer, unassigned) [Example 199b]	37

Results, then the compound that gave them:

IC50 [nM]	Structure (SMILES)
15	C=CC(=O)N1CC2(CC(n3nc(N4CCN(CC5COCCOC5)CC45CCC5)c(-c4c(Cl)c(C)cc5[nH]ncc45)c3C)C2)C1 (single isomer, unassigned) [Example 185b, 1-(6-(3-(8-((1,4-dioxepan-6-yl)methyl)-5,8-diazaspiro[3.5]nonan-5-yl)-4-(5-chloro-6-methyl-1H-indazol-4-yl)-5-methyl-1H-pyrazol-1-yl)-2-azaspiro[3.3]heptan-2-yl)prop-2-en-1-one]
1500	C=CC(=O)N1CC2(CC(n3nc(N4CCN(CC5COCCOC5)C[C@]4(C)CC)c(-c4c(Cl)c(C)cc5[nH]ncc45)c3C)C2)C1 (single isomer, unassigned) [Example 186a]
7	C=CC(=O)N1CC2(CC(n3nc(N4CCN(CC5COCCOC5)C[C@]4(C)CC)c(-c4c(Cl)c(C)cc5[nH]ncc45)c3C)C2)C1 (single isomer, unassigned) [Example 186b]
4200	C=CC(=O)N1CC2(CC(n3nc(N4CCN(C(COC)COC)C[C@]4(C)CC)c(-c4c(Cl)c(C)cc5[nH]ncc45)c3C)C2)C1 (single isomer, unassigned) [Example 187a]
15	C=CC(=O)N1CC2(CC(n3nc(N4CCN(C[C@H]5COCCO5)CC45CCC5)c(-c4c(Cl)c(C)cc5[nH]ncc45)c3C)C2)C1 (single isomer, unassigned) [Example 189b]
4500	C=CC(=O)N1CC2(CC(n3nc(N4CCN(C(C)(C)CO)CC45CCC5)c(-c4c(Cl)c(C)cc5[nH]ncc45)c3C)C2)C1 (single isomer, unassigned) [Example 190a, 1-(6-(4-(5-Chloro-6-methyl-1H-indazol-4-yl)-3-(8-(1-hydroxy-2-methylpropan-2-yl)-5,8-diazaspiro[3.5]nonan-5-yl)-5-methyl-1H-pyrazol-1-yl)-2-azaspiro[3.3]heptan-2-yl)prop-2-en-1-one]
111	C=CC(=O)N1CC2(CC(n3nc(N4CCN(C(C)(C)CO)CC45CCC5)c(-c4c(Cl)c(C)cc5[nH]ncc45)c3C)C2)C1 (single isomer, unassigned) [Example 190b, 1-(6-(4-(5-Chloro-6-methyl-1H-indazol-4-yl)-3-(8-(1-hydroxy-2-methylpropan-2-yl)-5,8-diazaspiro[3.5]nonan-5-yl)-5-methyl-1H-pyrazol-1-yl)-2-azaspiro[3.3]heptan-2-yl)prop-2-en-1-one]
14	C=CC(=O)N1CC2(CC(n3nc(N4CCN(C5(C)COC5)CC45CCC5)c(-c4c(Cl)c(C)cc5[nH]ncc45)c3C)C2)C1 (single isomer, unassigned) [Example 191b, 1-(6-(4-(5-Chloro-6-methyl-1H-indazol-4-yl)-5-methyl-3-(8-(3-methyloxetan-3-yl)-5,8-diazaspiro[3.5]nonan-5-yl)-1H-pyrazol-1-yl)-2-azaspiro[3.3]heptan-2-yl)prop-2-en-1-one]
20800	C=CC(=O)N1CC2(CC(n3nc(N4CCN(c5cnn(C)c5)CC4(C)C)c(-c4c(Cl)c(C)cc5[nH]ncc45)c3C)C2)C1 (single isomer, unassigned) [Example 193a, 1-(6-(4-(5-Chloro-6-methyl-1H-indazol-4-yl)-3-(2,2-dimethyl-4-(1-methyl-1H-pyrazol-4-yl)piperazin-1-yl)-5-methyl-1H-pyrazol-1-yl)-2-azaspiro[3.3]heptan-2-yl)prop-2-en-1-one]
19	C=CC(=O)N1CC2(CC(n3nc(N4CCN(c5nccn5C)C[C@]4(C)CC)c(-c4c(Cl)c(C)cc5[nH]ncc45)c3C)C2)C1 (single isomer, unassigned) [Example 194a]
1300	C=CC(=O)N1CC2(CC(n3nc(N4CCN(c5nccn5C)C[C@]4(C)CC)c(-c4c(Cl)c(C)cc5[nH]ncc45)c3C)C2)C1 (single isomer, unassigned) [Example 194b]
10400	C=CC(=O)N1CC2(CC(n3nc(N4CCN(C(C)=O)CC4)c(-c4c(Cl)ccc5[nH]ncc45)c3C)C2)C1C (single isomer, unassigned) [Example 195a, 1-(6-(3-(4-Acetylpiperazin-1-yl)-4-(5-chloro-1H-indazol-4-yl)-5-methyl-1H-pyrazol-1-yl)-1-methyl-2-azaspiro[3.3]heptan-2-yl)prop-2-en-1-one]
> 50000	C=CC(=O)N1CC2(CC(n3nc(N4CCN(C(C)=O)CC4)c(-c4c(Cl)ccc5[nH]ncc45)c3C)C2)C1C (single isomer, unassigned) [Example 195b, 1-(6-(3-(4-Acetylpiperazin-1-yl)-4-(5-chloro-1H-indazol-4-yl)-5-methyl-1H-pyrazol-1-yl)-1-methyl-2-azaspiro[3.3]heptan-2-yl)prop-2-en-1-one]
> 50000	C=CC(=O)N1CC2(CC(n3nc(N4CCN(C(C)=O)CC4)c(-c4c(Cl)ccc5[nH]ncc45)c3C)C2)C1C (single isomer, unassigned) [Example 196a, 1-(6-(3-(4-acetylpiperazin-1-yl)-4-(5-chloro-1H-indazol-4-yl)-5-methyl-1H-pyrazol-1-yl)-1-methyl-2-azaspiro[3.3]heptan-2-yl)prop-2-en-1-one]
> 50000	C=CC(=O)N1CC2(CC(n3nc(N4CCN(C(C)=O)CC4)c(-c4c(Cl)ccc5[nH]ncc45)c3C)C2)C1C (single isomer, unassigned) [Example 198b, 1-(6-(3-(4-acetylpiperazin-1-yl)-4-(5-chloro-1H-indazol-4-yl)-5-methyl-1H-pyrazol-1-yl)-1-methyl-2-azaspiro[3.3]heptan-2-yl)prop-2-en-1-one]
> 5000	C=CC(=O)N1CC2(CC(n3nc(N4CCN(C[C@@H]5COCCO5)C[C@]4(C)CC)c(-c4c(Cl)c(C)cc5[nH]ncc45)c3C)C2)C1C (single isomer, unassigned) [Example 199a]
